Measurements from patent publication US20260109707A1, “HETEROBIFUNCTIONAL COMPOUNDS AND METHODS OF TREATING DISEASE” (Halda Therapeutics OpCo. Inc., priority 2022, published 2026).
Read-outs that look alike come from different tables or passages of the source.

Key:
[1] = tested on: VCaP cells; experiment: Cellular growth inhibition assay for VCaP cells (CellTiter-Glo, 72 hours); format: cell-based, human
Procedure, shortened: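 Luminescent viability signal after 72 h of compound exposure gave GI50 values by four-parameter nonlinear regression. Compounds were added in 0.5% DMSO to cells plated 24 h earlier at 5000/well in DMEM containing 10% FBS.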

[2] = tested on: T-Rex 293 cell line SC3 cells lacking increased expression of androgen receptor protein; experiment: Cellular growth inhibition assay, T-Rex 293 SC3 cells without doxycycline (CellTiter-Glo, 72 hours); format: cell-based; settings: T-Rex 293 cell line SC3 cells not exposed to doxycycline (lacking increased androgen receptor expression)
Procedure, shortened: (§1)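 Doxycycline (10 ng/mL) was either included or omitted to toggle wild-type androgen receptor expression in SC3 cells, a T-Rex 293 clone, grown in stripped-serum, phenol red-free medium. After 72 hours with compound, viable cells were quantified by CellTiter-Glo 2.0.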

[3] = tested on: T47D cells; experiment: Cellular growth inhibition assay for T47D cells (CellTiter-Glo, 72 hours); format: cell-based, human; settings: 72 hours treatment
Procedure, shortened: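 Growth inhibition as GI50, fitted with four parameters to CellTiter-Glo luminescence after 72 h of compound exposure (0.5% DMSO). Cells were T47D, grown in insulin-supplemented (0.2 units/mL) DMEM with 10% FBS and treated one day post-seeding.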

[4] = tested on: T-Rex 293 cell line SC3 cells having increased expression of androgen receptor protein due to exposure to doxycycline; experiment: Cellular growth inhibition assay, T-Rex 293 SC3 cells with doxycycline (CellTiter-Glo, 72 hours); format: cell-based; settings: T-Rex 293 SC3 cells with increased androgen receptor expression due to doxycycline (10 ng/mL)
Procedure, shortened: as §1

GI50 ([1]; Homo sapiens, VCaP, 72 h) | GI50 ([3]; Homo sapiens, T47D, 72 h) | GI50 [3] | GI50 [1] | SMILES | GI50 ([2]; 72 h) | GI50 ([4]; 72 h) | GI50 [2] | GI50 [4]
< 500 nM | < 500 nM | – | – | Cc1sc2c(c1C)C(c1ccc(O[C@H]3C[C@@]4(CCCN(c5ccc(C(=O)N[C@H]6CC[C@H](Oc7ccc(C#N)c(Cl)c7)CC6)nn5)C4)C3)cn1)=N[C@@H](Cc1ncco1)c1nnc(C)n1-2 [I-261] | < 500 nM | < 500 nM | – | –
< 500 nM | < 500 nM | – | – | Cc1sc2c(c1C)C(c1ccc(OC[C@H]3C[C@]4(CCCN(c5ccc(C(=O)N[C@H]6CC[C@H](Oc7ccc(C#N)c(Cl)c7)CC6)nn5)C4)C3)nc1)=N[C@@H](Cc1ncco1)c1nnc(C)n1-2 [I-262] | > 3000 nM | < 500 nM | – | –
< 500 nM | 500 to 1500 nM | – | – | Cc1sc2c(c1C)C(c1ccc(OC[C@H]3C[C@@]4(CCCN(c5ccc(C(=O)N[C@H]6CC[C@H](Oc7ccc(C#N)c(Cl)c7)CC6)nn5)C4)C3)nc1)=N[C@@H](Cc1ncco1)c1nnc(C)n1-2 [I-263] | > 3000 nM | < 500 nM | – | –
< 500 nM | < 500 nM | – | – | Cc1sc2c(c1C)C(c1ccc(C[C@H]3CC[C@]4(C3)CN(c3ccc(C(=O)N[C@H]5CC[C@H](Oc6ccc(C#N)c(Cl)c6)CC5)nn3)CCO4)cc1)=N[C@@H](Cc1ncco1)c1nnc(C)n1-2 [I-266] | < 500 nM | < 500 nM | – | –
< 500 nM | < 500 nM | – | – | Cc1sc2c(c1C)C(c1ccc(C[C@H]3CC[C@@]4(C3)CN(c3ccc(C(=O)N[C@H]5CC[C@H](Oc6ccc(C#N)c(Cl)c6)CC5)nn3)CCO4)cc1)=N[C@@H](Cc1ncco1)c1nnc(C)n1-2 [I-267] | < 500 nM | < 500 nM | – | –
1500 to 3000 nM | 1500 to 3000 nM | – | – | Cc1sc2c(c1C)C(c1ccc(C(=O)N3CC[C@]4(CCCN(c5ccc(C(=O)N[C@H]6CC[C@H](Oc7ccc(C#N)c(Cl)c7)CC6)nn5)C4)C3)cc1)=N[C@H](Cc1ncco1)c1nnc(C)n1-2 [I-272] | > 3000 nM | < 500 nM | – | –
> 3000 nM | > 3000 nM | – | – | Cc1sc2c(c1C)C(c1ccc(C(=O)N3CCC[C@@H](Cc4ccc(C(=O)N[C@H]5CC[C@H](Oc6ccc(C#N)c(Cl)c6)CC5)nn4)C3)cc1)=N[C@H](Cc1ncco1)c1nnc(C)n1-2 [I-275] | > 3000 nM | < 500 nM | – | –
< 500 nM | < 500 nM | – | – | Cc1sc2c(c1C)C(c1ccc(CCC[C@@H]3CCCN(c4ccc(C(=O)N[C@H]5CC[C@H](Oc6ccc(C#N)c(Cl)c6)CC5)nn4)C3)cc1)=N[C@@H](Cc1ncco1)c1nnc(C)n1-2 [I-276] | < 500 nM | < 500 nM | – | –
< 500 nM | < 500 nM | – | – | Cc1sc2c(c1C)C(c1ccc(CCC[C@H]3CCCN(c4ccc(C(=O)N[C@H]5CC[C@H](Oc6ccc(C#N)c(Cl)c6)CC5)nn4)C3)cc1)=N[C@@H](Cc1ncco1)c1nnc(C)n1-2 [I-277] | < 500 nM | < 500 nM | – | –
< 500 nM | < 500 nM | – | – | Cc1sc2c(c1C)C(c1ccc(CCO[C@@H]3CCCN(c4ccc(C(=O)N[C@H]5CC[C@H](Oc6ccc(C#N)c(Cl)c6)CC5)nn4)C3)cc1)=N[C@@H](Cc1ncco1)c1nnc(C)n1-2 [I-278] | > 3000 nM | < 500 nM | – | –
< 500 nM | 500 to 1500 nM | – | – | Cc1sc2c(c1C)C(c1ccc(CCO[C@H]3CCCN(c4ccc(C(=O)N[C@H]5CC[C@H](Oc6ccc(C#N)c(Cl)c6)CC5)nn4)C3)cc1)=N[C@@H](Cc1ncco1)c1nnc(C)n1-2 [I-279] | < 500 nM | < 500 nM | – | –
< 500 nM | < 500 nM | – | – | Cc1sc2c(c1C)C(c1ccc(C#CC3CC4(C3)CN(c3ccc(C(=O)N[C@H]5CC[C@H](Oc6ccc(C#N)c(Cl)c6)CC5)nn3)C4)cn1)=N[C@H](Cc1ncco1)c1nnc(C)n1-2 [I-281] | < 500 nM | < 500 nM | – | –
< 500 nM | 500 to 1500 nM | – | – | Cc1sc2c(c1C)C(c1ccc(O[C@@H]3CC[C@]4(CCCN(c5ccc(C(=O)N[C@H]6CC[C@H](Oc7ccc(C#N)c(Cl)c7)CC6)nn5)C4)C3)nc1)=N[C@@H](Cc1ncco1)c1nnc(C)n1-2 [I-284] | – | < 500 nM | < 500 nM | –
< 500 nM | – | 1500 to 3000 nM | – | Cc1sc2c(c1C)C(c1ccc(O[C@@H]3CC[C@@]4(CCCN(c5ccc(C(=O)N[C@H]6CC[C@H](Oc7ccc(C#N)c(Cl)c7)CC6)nn5)C4)C3)nc1)=N[C@@H](Cc1ncco1)c1nnc(C)n1-2 [I-285] | – | < 500 nM | > 3000 nM | –
– | – | 500 to 1500 nM | < 500 nM | Cc1sc2c(c1C)C(c1ccc(O[C@@H]3CC[C@]4(CCCN(c5ccc(C(=O)N[C@H]6CC[C@H](Oc7ccc(C#N)c(Cl)c7)CC6)nn5)C4)C3)nc1)=N[C@@H](Cc1ncco1)c1nnc(C)n1-2 [I-286] | – | – | > 3000 nM | < 500 nM
– | – | 500 to 1500 nM | < 500 nM | Cc1sc2c(c1C)C(c1ccc(O[C@@H]3CC[C@@]4(CCCN(c5ccc(C(=O)N[C@H]6CC[C@H](Oc7ccc(C#N)c(Cl)c7)CC6)nn5)C4)C3)nc1)=N[C@@H](Cc1ncco1)c1nnc(C)n1-2 [I-287] | – | – | < 500 nM | < 500 nM
< 500 nM | < 500 nM | – | – | Cc1sc2c(c1C)C(c1ccc(C[C@@H]3CC[C@]4(C3)CN(c3ccc(C(=O)N[C@H]5CC[C@H](Oc6ccc(C#N)c(Cl)c6)CC5)nn3)CCO4)cc1)=NC(Cc1ncco1)c1nnc(C)n1-2 (stereo partly drawn) [I-288] | < 500 nM | < 500 nM | – | –
1500 to 3000 nM | 1500 to 3000 nM | – | – | Cc1sc2c(c1C)C(c1ccc(CNC(=O)NCc3ccc(C(=O)N[C@H]4CC[C@H](Oc5ccc(C#N)c(Cl)c5)CC4)nn3)cc1)=N[C@@H](Cc1ncco1)c1nnc(C)n1-2 [I-289] | > 3000 nM | < 500 nM | – | –
> 3000 nM | > 3000 nM | – | – | Cc1sc2c(c1C)C(c1ccc(C(=O)N3CCN(Cc4ccc(C(=O)N[C@H]5CC[C@H](Oc6ccc(C#N)c(Cl)c6)CC5)nn4)CC3)cc1)=N[C@@H](Cc1ncco1)c1nnc(C)n1-2 [I-290] | > 3000 nM | > 3000 nM | – | –
> 3000 nM | > 3000 nM | – | – | Cc1sc2c(c1C)C(c1ccc(C(=O)N3CCN(Cc4ccc(C(=O)N[C@H]5CC[C@H](Oc6ccc(C#N)c(Cl)c6)CC5)nn4)CC3)cc1)=N[C@H](Cc1ncco1)c1nnc(C)n1-2 [I-291] | > 3000 nM | < 500 nM | – | –
< 500 nM | < 500 nM | – | – | Cc1sc2c(c1C)C(c1ccc(N3CCC(C(=O)NCc4ccc(C(=O)N[C@H]5CC[C@H](Oc6ccc(C#N)c(Cl)c6)CC5)nn4)CC3)cc1)=N[C@@H](Cc1ncco1)c1nnc(C)n1-2 [I-292] | 500 to 1500 nM | < 500 nM | – | –
< 500 nM | 500 to 1500 nM | – | – | Cc1sc2c(c1C)C(c1ccc(CCNC(=O)NCc3ccc(C(=O)N[C@H]4CC[C@H](Oc5ccc(C#N)c(Cl)c5)CC4)nn3)cc1)=N[C@@H](Cc1ncco1)c1nnc(C)n1-2 [I-293] | > 3000 nM | < 500 nM | – | –
< 500 nM | < 500 nM | – | – | Cc1sc2c(c1C)C(c1ccc(N3CCC[C@H](C(=O)NCc4ccc(C(=O)N[C@H]5CC[C@H](Oc6ccc(C#N)c(Cl)c6)CC5)nn4)C3)cc1)=N[C@@H](Cc1ncco1)c1nnc(C)n1-2 [I-294] | > 3000 nM | < 500 nM | – | –
> 3000 nM | 1500 to 3000 nM | – | – | Cc1sc2c(c1C)C(c1ccc(N3CCC[C@H](C(=O)NCc4ccc(C(=O)N[C@H]5CC[C@H](Oc6ccc(C#N)c(Cl)c6)CC5)nn4)C3)cc1)=N[C@H](Cc1ncco1)c1nnc(C)n1-2 [I-295] | > 3000 nM | 500 to 1500 nM | – | –
< 500 nM | 500 to 1500 nM | – | – | Cc1sc2c(c1C)C(c1ccc([C@H]3CCCCN3C(=O)[C@H]3CCCN(c4ccc(C(=O)N[C@H]5CC[C@H](Oc6ccc(C#N)c(Cl)c6)CC5)nn4)C3)cc1)=N[C@@H](Cc1ncco1)c1nnc(C)n1-2 [I-296] | > 3000 nM | < 500 nM | – | –
< 500 nM | 500 to 1500 nM | – | – | Cc1sc2c(c1C)C(c1ccc([C@@H]3CCCCN3C(=O)[C@H]3CCCN(c4ccc(C(=O)N[C@H]5CC[C@H](Oc6ccc(C#N)c(Cl)c6)CC5)nn4)C3)cc1)=N[C@@H](Cc1ncco1)c1nnc(C)n1-2 [I-297] | > 3000 nM | < 500 nM | – | –
< 500 nM | < 500 nM | – | – | Cc1sc2c(c1C)C(c1ccc(CN3CCO[C@@H](CNc4ccc(C(=O)N[C@H]5CC[C@H](Oc6ccc(C#N)c(Cl)c6)CC5)nn4)C3)cc1)=N[C@@H](Cc1ncco1)c1nnc(C)n1-2 [I-298] | < 500 nM | < 500 nM | – | –
< 500 nM | 1500 to 3000 nM | – | – | Cc1sc2c(c1C)C(c1ccc(CN(C)C(=O)CN(C)c3ccc(C(=O)N[C@H]4CC[C@H](Oc5ccc(C#N)c(Cl)c5)CC4)nn3)cc1)=N[C@@H](Cc1ncco1)c1nnc(C)n1-2 [I-299] | > 3000 nM | 1500 to 3000 nM | – | –
< 500 nM | 500 to 1500 nM | – | – | Cc1sc2c(c1C)C(c1ccc(CNC(=O)Cc3ccc(C(=O)N[C@H]4CC[C@H](Oc5ccc(C#N)c(Cl)c5)CC4)nn3)cc1)=N[C@@H](Cc1ncco1)c1nnc(C)n1-2 [I-300] | > 3000 nM | 500 to 1500 nM | – | –
< 500 nM | < 500 nM | – | – | Cc1sc2c(c1C)C(c1ccc(N3CCC[C@H](C(=O)N4CCC[C@H](c5ccc(C(=O)N[C@H]6CC[C@H](Oc7ccc(C#N)c(Cl)c7)CC6)nn5)C4)C3)cc1)=N[C@@H](Cc1ncco1)c1nnc(C)n1-2 [I-301] | < 500 nM | < 500 nM | – | –
